ChEMBL document CHEMBL4651402, “Screening of ~5500 FDA-approved drugs and clinical candidates for anti-SARS-CoV-2 activity” (2021)

Test system: SARS-CoV-2
Assay: microbe, parasite or virus in culture
Settings: Severe acute respiratory syndrome coronavirus 2, Vero C1008, 48 h

SMILES | IC50 [µM] | IC50 (read-out: pIC50 (converted)) [µM]
CC[N+](C)(CC)CCOC(=O)C(O)(c1ccccc1)C1CCCCC1 (stereo not given) [OXYPHENONIUM] | > 20 | > 20
Oc1nc(O)c2cn[nH]c2n1 [OXYPURINOL] | > 20 | > 20
Oc1cccc2cccnc12 [OXYQUINOLINE] | > 20 | > 20
CN(C)[C@@H]1C(O)=C(C(N)=O)C(=O)[C@@]2(O)C(O)=C3C(=O)c4c(O)cccc4[C@@](C)(O)[C@H]3[C@H](O)[C@@H]12 [OXYTETRACYCLINE] | > 20 | > 20
O=C(O)/C=C/c1ccc(Cn2ccnc2)cc1 [OZAGREL] | > 20 | > 20
CC(C)Oc1ccc(-c2nc(-c3cccc4c3CC[C@@H]4NCCO)no2)cc1C#N [OZANIMOD] | > 20 | > 20
Cc1ccc(S(N)(=O)=O)cc1 [P-TOLUENESULFONAMIDE] | > 20 | > 20
COc1cc2c(cc1-c1cc3cc4ccoc4cc3oc1=O)OCO2 [PACHYRRIZINE] | > 20 | > 20
C1=N/C2=N/c3ccc(OCCN4CCCC4)c(c3)COC/C=C/COCc3cccc(c3)C(=C1)N2 [PACRITINIB] | > 20 | > 20
COc1ccc(C(C)=O)c(O)c1 [PAEONOL] | > 20 | > 20
CC(C)n1nc(-c2cccc(Cl)c2Cl)c(N)nc1=N [PALATRIGINE] | > 20 | > 20
CC(=O)c1c(C)c2cnc(Nc3ccc(N4CCNCC4)cn3)nc2n(C2CCCC2)c1=O [PALBOCICLIB] | > 20 | > 20
O=P(O)(NCCCl)NCCCl [PALIFOSFAMIDE] | > 20 | > 20
CCCCCCCCCCCCCCCC(=O)NCCO [PALMIDROL] | > 20 | > 20
CCCCCCCCCCCCCCCC(=O)O [PALMITIC ACID] | > 20 | > 20
COc1cc2c(cc1OC)-c1cc3ccc(OC)c(OC)c3c[n+]1CC2 [PALMITINE] | > 20 | > 20
CCCCCCCCCCCCCCC1(C(=O)O)CO1 (stereo not given) [PALMOXIRATE] | > 20 | > 20
COc1ccc(COc2cc3oc(=O)c4cc(C(C)O)ccc4c3cc2OC)cc1 (stereo not given) [PALOMID-529] | > 20 | > 20
Cc1cc(NC(=O)NCCN2CCC(O)(Cc3ccccc3)CC2)c2ccccc2n1 [PALOSURAN] | > 20 | > 20
Cn1c(=O)c2[nH]c(Br)nc2n(C)c1=O [PAMABROM] | > 20 | > 20
C[C@]12CCCN1CC1=NNC(=O)c3cc(F)cc4[nH]c2c1c34 [PAMIPARIB] | > 20 | > 20
CC(=O)O[C@H]1C[C@@H]2CC[C@@H]3[C@H](CC[C@@]4(C)[C@H]3C[C@H]([N+]3(C)CCCCC3)[C@@H]4OC(C)=O)[C@@]2(C)C[C@@H]1[N+]1(C)CCCCC1 [PANCURONIUM] | > 20 | > 20
Cc1[nH]c2ccccc2c1CCNCc1ccc(/C=C/C(=O)NO)cc1 [PANOBINOSTAT] | > 20 | > 20
CC(C)(CO)[C@@H](O)C(=O)NCCC(=O)O [PANTOTHENIC ACID] | > 20 | > 20
COc1ccc(Cc2nccc3cc(OC)c(OC)cc23)cc1OC [PAPAVERINE] | > 20 | > 20
COc1ccc(CC(C)N)cc1 (stereo not given) [PARA-METHOXYAMPHETAMINE] | > 20 | > 20
Oc1ccc(Cl)cc1 [PARACHLOROPHENOL] | > 20 | > 20
CCC1(C)OC(=O)N(C)C1=O (stereo not given) [PARAMETHADIONE] | > 20 | > 20

SMILES | IC50 [µM] | IC50 (read-out: pIC50 (converted)) [µM]
C[N+]1(C)CCC(OC(=O)C(O)(c2ccccc2)c2ccccc2)CC1 [PARAPENZOLATE] | > 20 | > 20
Cn1c(=O)[nH]c2ncn(C)c2c1=O [PARAXANTHINE] | > 20 | > 20
CCCCc1ccc2[nH]c(NC(=O)OC)nc2c1 [PARBENDAZOLE] | > 20 | > 20
CCC(=O)NS(=O)(=O)c1ccc(-c2c(-c3ccccc3)noc2C)cc1 [PARECOXIB] | > 20 | > 20
C#CCN(C)Cc1ccccc1 [PARGYLINE] | > 20 | > 20
NC[C@@H]1O[C@H](O[C@H]2[C@@H](O)[C@H](O[C@@H]3[C@@H](O)[C@H](N)C[C@H](N)[C@H]3O[C@H]3O[C@H](CO)[C@@H](O)[C@H](O)[C@H]3N)O[C@@H]2CO)[C@H](N)[C@@H](O)[C@@H]1O [PAROMOMYCIN] | > 20 | > 20
CCC(=O)c1ccc(O)cc1 [PAROXYPROPIONE] | > 20 | > 20
Cc1cnc(N2CC3(CCOCC3)C2)c(C(=O)Nc2ccc(C(=O)N3CCc4cc(C(=O)Nc5c(C)cccc5F)sc4-c4ccccc43)cc2)c1 [PC-786] | > 20 | > 20
CCn1cc(C(=O)O)c(=O)c2cc(F)c(N3CCN(C)CC3)cc21 [PEFLOXACIN] | > 20 | > 20
CCOc1cc2ncc(C#N)c(Nc3ccc(F)c(Cl)c3)c2cc1NC(=O)/C=C/CN(C)C [PELITINIB] | > 20 | > 20
Cc1nc(=O)c(C#N)c(NCc2cccnc2)[nH]1 [PELRINONE] | > 20 | > 20
CCC1(CC(=O)O)OCC(Cc2ccccc2)c2c1[nH]c1ccccc21 (stereo not given) [PEMEDOLAC] | > 20 | > 20
CN(C)CCCOC1CC(C)(C)N(C)C(C)(C)C1 [PEMERID] | > 20 | > 20
Nc1nc2[nH]cc(CCc3ccc(C(=O)N[C@@H](CCC(=O)O)C(=O)O)cc3)c2c(=O)[nH]1 [PEMETREXED] | > 20 | > 20
Cc1cccn2c(=O)c(-c3nnn[nH]3)cnc12 [PEMIROLAST] | > 20 | > 20
NC1=NC(=O)C(c2ccccc2)O1 (stereo not given) [PEMOLINE] | > 20 | > 20
CN1C(C)(C)CCCC1(C)C [PEMPIDINE] | > 20 | > 20
Nc1nc(O)c2ncn(CCC(CO)CO)c2n1 [PENCICLOVIR] | > 20 | > 20
CC(C)(S)[C@@H](N)C(=O)O [PENICILLAMINE] | > 20 | > 20
CC1(C)S[C@@H]2[C@H](NC(=O)Cc3ccccc3)C(=O)N2[C@H]1C(=O)O [PENICILLIN G] | > 20 | > 20
CSCC[C@H](NC(=O)[C@H](Cc1c[nH]c2ccccc12)NC(=O)CCNC(=O)OC(C)(C)C)C(=O)N[C@@H](CC(=O)O)C(=O)N[C@@H](Cc1ccccc1)C(N)=O [PENTAGASTRIN] | > 20 | > 20
C[N+](C)(C)CCCCC[N+](C)(C)C [PENTAMETHONIUM] | > 20 | > 20
N=C(N)c1ccc(OCCCCCOc2ccc(C(=N)N)cc2)cc1 [PENTAMIDINE] | > 20 | > 20
CCC(C)C(C(=O)OC1CCN(C)CC1)c1ccccc1 (stereo not given) [PENTAPIPERIDE] | > 20 | > 20
O=C(O)CN(CCN(CC(=O)O)CC(=O)O)CCN(CC(=O)O)CC(=O)O [PENTETIC ACID] | > 20 | > 20
CC[N+](C)(CC)CCOC(=O)C(O)(c1cccs1)C1CCCC1 (stereo not given) [PENTHIENATE] | > 20 | > 20
CCCC(C)C1(CC)C(=O)NC(=O)NC1=O (stereo not given) [PENTOBARBITAL] | > 20 | > 20
